Source: BindingDB's records for patent US12570614 (Glaxosmith Kline, 2026)

Target: Tyrosine-protein kinase JAK2 (Homo sapiens, UniProt O60674)
Assay: Enzyme Screening Assay
Procedure: Alphascreen phosphotyrosine acceptor beads followed by streptavidin donor beads at a concentration of 1/100 in stop buffer were added to each well under subdued light and incubated for 2-3 hours. The Alphascreen plates were read on a Packard Fusion Alpha instrument

Sequence of Tyrosine-protein kinase JAK2 (O60674 whole entry): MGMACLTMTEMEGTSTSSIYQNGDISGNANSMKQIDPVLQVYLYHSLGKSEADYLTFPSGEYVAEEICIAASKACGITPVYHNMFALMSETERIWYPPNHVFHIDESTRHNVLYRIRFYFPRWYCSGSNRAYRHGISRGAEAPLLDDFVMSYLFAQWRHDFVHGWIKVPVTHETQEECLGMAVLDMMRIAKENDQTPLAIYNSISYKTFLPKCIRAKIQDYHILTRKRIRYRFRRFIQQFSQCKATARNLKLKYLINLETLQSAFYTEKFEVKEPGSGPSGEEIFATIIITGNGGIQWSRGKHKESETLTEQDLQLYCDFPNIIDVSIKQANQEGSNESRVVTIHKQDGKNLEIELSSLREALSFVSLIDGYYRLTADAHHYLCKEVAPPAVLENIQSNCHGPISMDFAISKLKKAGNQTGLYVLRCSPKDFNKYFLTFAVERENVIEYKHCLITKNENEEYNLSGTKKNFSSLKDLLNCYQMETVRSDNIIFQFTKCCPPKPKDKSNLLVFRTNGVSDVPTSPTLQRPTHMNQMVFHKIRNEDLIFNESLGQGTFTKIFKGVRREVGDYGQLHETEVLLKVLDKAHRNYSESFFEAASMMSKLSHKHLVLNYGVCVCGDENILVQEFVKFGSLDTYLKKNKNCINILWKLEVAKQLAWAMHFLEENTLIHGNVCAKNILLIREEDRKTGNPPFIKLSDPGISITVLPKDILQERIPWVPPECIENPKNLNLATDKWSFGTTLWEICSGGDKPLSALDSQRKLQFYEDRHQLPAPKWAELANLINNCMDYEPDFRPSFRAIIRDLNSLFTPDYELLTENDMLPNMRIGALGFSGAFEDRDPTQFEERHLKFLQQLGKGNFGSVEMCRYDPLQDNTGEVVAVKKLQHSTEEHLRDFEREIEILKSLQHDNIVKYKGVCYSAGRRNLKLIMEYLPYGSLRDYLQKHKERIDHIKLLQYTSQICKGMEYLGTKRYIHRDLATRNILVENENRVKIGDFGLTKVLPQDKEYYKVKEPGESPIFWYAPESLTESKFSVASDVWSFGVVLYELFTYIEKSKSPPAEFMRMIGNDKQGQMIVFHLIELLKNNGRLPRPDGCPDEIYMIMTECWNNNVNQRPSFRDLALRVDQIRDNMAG

Which IC50 does the source give for `CCN1CCC(OC2CCC(Nc3nccc(-c4ccc(C(=O)NCC#N)cc4)n3)CC2)CC1` (stereo unspecified) [US12570614, Compound 80] here?
Its IC50 is under 1 µM.
